Results: patent US5468758A, “Crystalline forms of endo-2,3-dihydro-N-(8-methyl)-8-azabicyclo[3.2.1]oct-3-yl)-2-oxo-1H-benz imidazole-1-carboxamides” (Boehringer Ingelheim Italia S.p.A., priority 1992, dated 1995)
Where a name gives a salt, the structure may show the parent alone. Read-outs that look alike come from different tables or passages of the source.

What was measured:
Type in all cases: physicochemical
[1] = Long-term real time stability tests in tablets and capsules; details: tablets and capsules in PVC/PVDC blister with aluminium foil
Source text: (§1) Drug stability in these final compositions may be measured in accelerated stability tests or in long term real time stability tests. In accelerated stability tests, the above pharmaceutical compositions are exposed at high temperatures at different degrees of relative humidity for a period of time. Such tests are considered to be indicative of the stability of the composition at normal conditions. In long term real time stability studies the final compositions are exposed to normal conditions of storage at ambient temperatures at different degrees of relative humidity.
Tablets and capsules are packaged in PVC/PVDC blister with aluminium foil

[2] = Accelerated stability tests in tablets and capsules; details: tablets and capsules in PVC/PVDC blister with aluminium foil
Source text: as §1
(*)according to H. Leven Berger Pharm. Act. Helv. 50 (1975) 88-91 it is
equivalent to 2 years storage at room temperature. Tablets and capsules
are packaged in PVC/PVDC blister with aluminium foil.
(*)according to "Guidelines for stability studies for Human Drugs and
Biologics" (1987) (USA/FDA) it is equivalent to 2 years at room
temperature. Tablets and capsules are packaged in PVC/PVDC blister with […]

[3] = Moisture content during tablet manufacturing (mixing and tableting); details: for Moisture content: % on the weight of compound 1a
Source text: As a consequence, storage of compound 2a may be effected in normal conditions and no particular precautions are needed to avoid exposure to moisture. The titer of compound 2a, when it is stored in normal conditions, is therefore maintained at difference with compound 1a which, in the same conditions, may show different titles according to the water content. The hygroscopicity may also influence the drug title immediately after the manufacturing of tablets. In fact during the process of manufacturing the drug exposed at normal ambient conditions where it can take up moisture.

[4] = Moisture sorption/desorption studies (hygrostat, storage at different temperatures and relative humidity); parameters: water content (Table VI): unit not given here; details: for moisture absorption: different temperatures and relative humidity, in words
Experimental: The determination of the sorption isotherms was carried out in a hygrostat.
At suitable intervals, the sample was weighed by means of a sample balance. The atmosphere in the hygrostat and therefore around the sample of compound 1a (1b) and 2a (2b) was conditioned and kept by a saturated solutions of a suitable salt:
Na Cl saturated solution 75.3% RH/25° C. 74.8% RH/37° C.
KNO3 saturated solution 93.7% RH/25° C. 90.0% RH/37° C.
At the end of the experiment, after completing the hysteresis, that is the adsorption--desorption cycle of humidity, the compound was assayed for the title and degradation products by TLC and HPLC, the physical state by DSC and water content by TGA.

[5] = Milling studies (FRITSCH Pulverisette 14 Rotor Speed Mill)
Experimental: The milling process was performed by the FRITSCH Pulverisette 14 Rotor Speed Mill supplied with circular sieve stainless steel with trapezoidal 0.080 mm diameter openings. The samples were passed through the mill twice at 20.000 rpm motor speed. The sample is assayed for title and degradation products by TLC and HPLC, physical state by DSC, water content by TGA, particle size distribution by Mercury Instrusion Porosimetry. The mi 11ed compounds are formulated in capsules and tablets at very low dose level (0.5 mg) by direct mixing and direct compression manufacturing method, respectively.

Structure (SMILES): CN1C2CCC1CC(NC(=O)n1c(=O)[nH]c3ccccc31)C2 (stereo not drawn) [Compound 1a, endo-2,3-dihydro-N-(8-methyl-8-azabicyclo[3.2.1]oct-3-yl)-2-oxo-1H-benzimidazole-1-carboxamide, reference compound]
- % degradation ([1]; 3 months/40° C., 129600 min): 0.6%
- % degradation ([1]; 6 months/30° C.-70% RH, 259200 min): 0.5%
- % degradation ([1]; 6 months/40° C., 259200 min): 1.1%
- % degradation ([2]; 1 month/55° C., 43200 min): 2.0%
- degraded at 2160 h ([2]; tablets and capsules, 3 months/40° C.-75% RH, read-out: % degradation): 0.8%
- degraded at 2160 h ([2]; tablets and capsules, 3 months/55° C., read-out: % degradation): 3.2%
- degraded at 4320 h ([2]; tablets and capsules, 6 months/40° C.-75% RH, read-out: % degradation): 1.7%
- Moisture content ([3]; Final (b), tableting): 1.02%
- Moisture content ([3]; Intermediate (a), mixing): 0.66%
- Moisture content ([3]; Start): 0.62%
- water content during manufacturing ([3]; mixing (a) and tableting (b) phases, in words): increases its water content
- water content (Table III) ([4]; 37° C., 75% RH, 2 h): 0.34%
- water content (Table III) ([4]; 37° C., 75% RH, 4 h): 0.39%
- water content (Table III) ([4]; 37° C., 75% RH, 6 h): 0.59%
- water content (Table III) ([4]; 37° C., 75% RH, 1 d): 1.95%
- water content (Table III) ([4]; 37° C., 75% RH, 5 d): 5.09%
- water content (Table III) ([4]; 37° C., 75% RH, 9 d): 5.13%
- water content (Table III) ([4]; 37° C., 75% RH, 15 d): 5.13%
- water content (Table III) ([4]; 37° C., 94% RH, 2 h): 1.93%
- water content (Table III) ([4]; 37° C., 94% RH, 4 h): 3.41%
- water content (Table III) ([4]; 37° C., 94% RH, 6 h): 4.68%
- water content (Table III) ([4]; 37° C., 94% RH, 1 d): 5.04%
- water content (Table III) ([4]; 37° C., 94% RH, 5 d): 5.06%
- water content (Table III) ([4]; 37° C., 94% RH, 9 d): 5.06%
- water content (Table III) ([4]; 37° C., 94% RH, 15 d): 5.04%
- water content (Table III) ([4]; Room Temperature, 75% RH, 2 h): 0.68%
- water content (Table III) ([4]; Room Temperature, 75% RH, 4 h): 0.74%
- water content (Table III) ([4]; Room Temperature, 75% RH, 6 h): 0.78%
- water content (Table III) ([4]; Room Temperature, 75% RH, 1 d): 1.25%
- water content (Table III) ([4]; Room Temperature, 75% RH, 4 d): 2.54%
- water content (Table III) ([4]; Room Temperature, 75% RH, 8 d): 3.5%
- water content (Table III) ([4]; Room Temperature, 75% RH, 20 d): 4.59%
- water content (Table III) ([4]; Room Temperature, 75% RH, 40 d): 4.95%
- water content (Table III) ([4]; Room Temperature, 94% RH, 2 h): 1.28%
- water content (Table III) ([4]; Room Temperature, 94% RH, 4 h): 1.92%
- water content (Table III) ([4]; Room Temperature, 94% RH, 6 h): 2.41%
- water content (Table III) ([4]; Room Temperature, 94% RH, 1 d): 5.33%
- water content (Table III) ([4]; Room Temperature, 94% RH, 4 d): 5.39%
- water content (Table III) ([4]; Room Temperature, 94% RH, 8 d): 5.39%
- water content (Table III) ([4]; Room Temperature, 94% RH, 20 d): 5.4%
- water content (Table III) ([4]; Room Temperature, 94% RH, 40 d): 5.42%
- moisture absorption [4]: marked tendency to moisture absorption
- particle size reduction (milling efficiency) ([5]; Mercury Porosimetry Analysis, in words): same rank order
- percentage of degradation products after milling ([5]; rotor speed of 20,000 rpm): 0.65%

Structure (SMILES): CCn1c(=O)n(C(=O)N[C@H]2C[C@H]3CC[C@@H](C2)N3C)c2ccccc21 [Compound 1b, endo-3-ethyl-2,3-dihydro-N-(8-methyl-8-azabicyclo-[3.2.1]oct-3-yl)-2-oxo-1H-benzimidazole-1-carboxamide hydrochloride, reference compound]
- water content (Table VI) ([4]; 37° C., 49.2% RH, 2 h, hydrochloride): 2.18
- water content (Table VI) ([4]; 37° C., 49.2% RH, 4 h, hydrochloride): 2.58
- water content (Table VI) ([4]; 37° C., 49.2% RH, 6 h, hydrochloride): 3.01
- water content (Table VI) ([4]; 37° C., 49.2% RH, 1 d, hydrochloride): 4.07
- water content (Table VI) ([4]; 37° C., 49.2% RH, 4 d, hydrochloride): 4.81
- water content (Table VI) ([4]; 37° C., 49.2% RH, 10 d, hydrochloride): 4.82
- water content (Table VI) ([4]; 37° C., 49.2% RH, 30 d, hydrochloride): 4.81
- water content (Table VI) ([4]; 37° C., 49.2% RH, time 0, hydrochloride): 1.13
- water content (Table VI) ([4]; 37° C., 74.8% RH, 2 h, hydrochloride): 4.99
- water content (Table VI) ([4]; 37° C., 74.8% RH, 4 h, hydrochloride): 4.93
- water content (Table VI) ([4]; 37° C., 74.8% RH, 6 h, hydrochloride): 4.97
- water content (Table VI) ([4]; 37° C., 74.8% RH, 1 d, hydrochloride): 4.90
- water content (Table VI) ([4]; 37° C., 74.8% RH, 4 d, hydrochloride): 4.92
- water content (Table VI) ([4]; 37° C., 74.8% RH, 10 d, hydrochloride): 4.85
- water content (Table VI) ([4]; 37° C., 74.8% RH, 30 d, hydrochloride): 4.81
- water content (Table VI) ([4]; 37° C., 74.8% RH, time 0, hydrochloride): 1.13
- moisture absorption ([4]; hydrochloride): marked tendency to moisture absorption
- humidity content ([5]; after milling, hydrochloride): 2.32%
- humidity content ([5]; before milling): 0.87%
